Results from US7741493B2, “Heterocyclic compounds as P2X7 ion channel blockers” (Aventis Pharmaceuticals Inc., priority 2003, dated 2010).
Values joined by “and” are separate entries in the source; they are usually repeats but may differ in a detail not shown here. Equal entries are not always repeated. Structures can show the parent of a compound that is named as a salt.

biological target: T1, P2X7 (Homo sapiens, UniProt Q99572); test: YO-PRO-1 dye uptake assay in U373 cells stably expressing P2X7; type: cell-based; set-up: The complete open reading frame of human P2X7 was amplified from Incyte clone 148057; expressed in transfected cells; conditions: IC50 (nM), dye uptake through P2X7, U373 cells, 300 μM BzATP, 5 μM YO-PRO-1, test compounds 30 nM to 3 μM
T1 sequence (Q99572 1-595): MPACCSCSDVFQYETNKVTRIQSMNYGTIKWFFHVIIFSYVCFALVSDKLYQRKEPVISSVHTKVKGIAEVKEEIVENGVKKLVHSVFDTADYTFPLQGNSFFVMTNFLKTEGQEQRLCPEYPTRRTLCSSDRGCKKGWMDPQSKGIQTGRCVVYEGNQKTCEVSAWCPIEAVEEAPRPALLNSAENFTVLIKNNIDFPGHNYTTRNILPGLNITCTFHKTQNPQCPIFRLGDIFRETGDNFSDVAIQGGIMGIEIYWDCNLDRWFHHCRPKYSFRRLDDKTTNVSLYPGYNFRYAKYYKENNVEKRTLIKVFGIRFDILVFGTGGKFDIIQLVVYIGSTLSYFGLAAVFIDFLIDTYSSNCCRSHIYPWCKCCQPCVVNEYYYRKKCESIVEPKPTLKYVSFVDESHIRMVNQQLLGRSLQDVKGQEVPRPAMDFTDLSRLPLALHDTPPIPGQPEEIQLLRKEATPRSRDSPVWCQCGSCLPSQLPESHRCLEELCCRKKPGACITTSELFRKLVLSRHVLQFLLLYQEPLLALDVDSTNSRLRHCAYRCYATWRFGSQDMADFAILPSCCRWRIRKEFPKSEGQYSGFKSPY
Method in brief: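 U373 cells stably expressing human P2X7 preincubated 20 min at 37° C. with compound (30 nM to 3 μM) in Mg/Ca-free HBSS. YO-PRO-1 (5 μM final) and BzATP (300 μM final) then added for 1.5 h at 37° C.; dye-uptake fluorescence compared with compound-free control.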

Compound | IC50 [nM]
c1ccc(CCC2=N[C@H](c3ccccc3)[C@H](c3ccccc3)N2)cc1 [cis-4,5-diphenyl-2-(2-phenylethyl)-4,5-dihydro-1H-imidazole] | 77

same assay, conditions: dye uptake through P2X7, U373 cells, 300 μM BzATP, 5 μM YO-PRO-1, test compounds 30 nM to 3 μM; read-out: IC50

Compound | IC50
c1ccc([C@H]2NC(NCC3CCCCC3)=N[C@H]2c2ccccc2)cc1 [(cis-4,5-Diphenyl-4,5-dihydro-1H-imidazol-2-yl)-(cyclohexylmethyl)amine hydrochloride] | 124 nM
Fc1cccc([C@H]2NC(NCc3ccc(F)c(F)c3)=N[C@H]2c2cccc(F)c2)c1 [[cis-4,5-bis-(3-Fluorophenyl)-4,5-dihydro-1H-imidazol-2-yl]-(3,4-difluorobenzyl)-amine hydrochloride] | 71 nM
Fc1cccc([C@H]2NC(CCc3cccs3)=N[C@H]2c2cccc(F)c2)c1 [2-[(2-Thiophen-2-yl)ethyl]-cis-4,5-bis-(3-fluorophenyl)-4,5-dihydro-1H-imidazole trifluoroacetate] | 592 nM
Cc1cccc([C@H]2NC(NCc3ccc(F)cc3)=N[C@H]2c2cccc(C)c2)c1 [[cis-4,5-bis-(3-Methylphenyl)-4,5-dihydro-1H-imidazol-2-yl]-(4-fluorobenzyl)amine hydrochloride] | 107 nM
C[C@@]1(c2cccc(F)c2)N=C(NCc2cccc(F)c2)N[C@@H]1c1cccc(F)c1 | 49 nM
C[C@@H](CC1=N[C@@H](c2ccccc2)[C@@H](c2ccccc2)N1)c1ccccc1 | 13 nM
C#CC(CCC)OCC1=N[C@@](C)(c2ccccc2)[C@@H](c2ccccc2)N1 (relative stereo) [2-[(1-Ethynyl-1-butoxy)methyl]-cis-4,5-diphenyl-4-methyl-4,5-dihydro-1H-imidazole hydrochloride] | 739 nM
C[C@@]1(c2cccc(F)c2)N=C(CCc2ccccc2)N[C@@H]1c1cccc(F)c1 (relative stereo) [2-Phenethyl-cis-4,5-bis-(3-fluorophenyl)-4-methyl-4,5-dihydro-1H-imidazole hydrochloride] | 66 nM
CC(C)(CC1=N[C@@H](c2ccccc2)[C@@H](c2ccccc2)N1)c1ccccc1 | 10 nM
C[C@@]1(c2ccccc2)N=C(COc2ccccc2Cl)N[C@@H]1c1ccccc1 (relative stereo) [2-[(2-Chlorophenoxy)methyl]-cis-4,5-diphenyl-4-methyl-4,5-dihydro-1H-imidazole hydrochloride] | 743 nM
Fc1ccc(OCC2=N[C@@H](c3cccc(F)c3)[C@@H](c3cccc(F)c3)N2)cc1 [2-[(4-Fluorophenoxy)methyl]-cis-4,5-bis-(3-fluorophenyl)-4,5-dihydro-1H-imidazole] | 346 nM
Clc1cccc([C@H]2NC(NCc3ccccc3)=N[C@H]2c2cccc(Cl)c2)c1 [[cis-4,5-bis-(3-Chlorophenyl)-4,5-dihydro-1H-imidazol-2-yl]-benzylamine hydrochloride] | 433 nM
CC(C1=N[C@](C)(c2ccccc2)[C@H](c2ccccc2)N1)c1ccc(Cl)cc1 (relative stereo) [2-[1-(4-Chlorophenyl)-1-ethyl]-cis-4,5-diphenyl-4-methyl-4,5-dihydro-1H-imidazole trifluoroacetate] | 331 nM
Fc1ccc(CNC2=N[C@@H](c3ccc(F)cc3)[C@@H](c3ccc(F)cc3)N2)cc1 | 338 nM
Fc1ccc([C@H]2NC(CCc3ccccc3)=N[C@H]2c2ccc(F)cc2)cc1 [cis-4,5-bis(4-fluorophenyl)-2-(2-phenylethyl)-4,5-dihydro-1H-imidazole] | 277 nM
Fc1cccc(CCC2=N[C@@H](c3cccc(F)c3)[C@@H](c3cccc(F)c3)N2)c1 [2-[2-(3-Fluorophenyl)ethyl]-cis-4,5-bis-(3-fluorophenyl)-4,5-dihydro-1H-imidazole trifluoroacetate] | 79 nM
Fc1cccc([C@H]2NC(CCc3ccccc3Cl)=N[C@H]2c2cccc(F)c2)c1 [2-[2-(2-Chlorophenyl)ethyl]-cis-4,5-bis-(3-fluorophenyl)-4,5-dihydro-1H-imidazole] | 140 nM

The remaining lines, values ahead:

IC50 | Compound
164 nM | Fc1ccccc1CCC1=N[C@@H](c2ccccc2)[C@@H](c2ccccc2)N1 [2-[2-(2-Fluorophenyl)ethyl]-cis-4,5-diphenyl-4,5-dihydro-1H-imidazole trifluoroacetate]
142 nM | Fc1c(Cl)cccc1CC1=N[C@@H](c2ccccc2)[C@@H](c2ccccc2)N1 [trifluoroacetate]
423 nM | CC(C1=N[C@@H](c2ccccc2)[C@@H](c2ccccc2)N1)c1ccc(Cl)cc1 (relative stereo) [trifluoroacetate]
319 nM | Cc1ccc(F)cc1CC1=N[C@@H](c2ccccc2)[C@@H](c2ccccc2)N1 [trifluoroacetate]
826 nM | Fc1cccc(Cl)c1CC1=N[C@@H](c2ccccc2)[C@@H](c2ccccc2)N1 [trifluoroacetate]
409 nM | Fc1ccccc1CNC1=N[C@@H](c2ccccc2)[C@@H](c2ccccc2)N1 [cis-4,5-diphenyl-2-(2-fluorobenzyl)amino-4,5-dihydro-1H-imidazole]
50 nM | c1ccc(C2N=C(C3Cc4ccccc4C3)NC2c2ccccc2)cc1 (stereo not drawn) [2-indan-2-yl-4,5-diphenyl-4,5-dihydro-1H-imidazole trifluoroacetate]
630 nM | Clc1ccccc1CSC1=N[C@@H](c2ccccc2)[C@@H](c2ccccc2)N1 [cis-4,5-diphenyl-2-(2-chlorobenzyl)thio-4,5-dihydro-1H-imidazole]
415 nM | Cc1cccc(COCC2=N[C@@H](c3ccccc3)[C@@H](c3ccccc3)N2)c1 [2-[(3-Methylbenzyloxy)methyl]-cis-4,5-diphenyl-4,5-dihydro-1H-imidazole hydrochloride]
612 nM | c1ccc(OCC2=N[C@@H](c3ccccc3)[C@@H](c3ccccc3)N2)cc1 [cis-4,5-diphenyl-2-phenoxymethyl-4,5-dihydro-1H-imidazole]
187 nM | Cc1cccc(CNC2=N[C@@H](c3ccccc3)[C@@H](c3ccccc3)N2)c1 [cis-4,5-diphenyl-2-(3-methylbenzyl)amino-4,5-dihydro-1H-imidazole]
647 nM | Ic1ccccc1CSC1=N[C@@H](c2ccccc2)[C@@H](c2ccccc2)N1 [cis-4,5-diphenyl-2-(2-iodobenzyl)thio-4,5-dihydro-1H-imidazole]
603 nM | c1ccc([C@H]2NC(COC3CCCCCC3)=N[C@H]2c2ccccc2)cc1 [2-[(Cycloheptyloxy)methyl]-cis-4,5-diphenyl-4,5-dihydro-1H-imidazole trifluoroacetate]
218 nM | Fc1ccc(CCC2=N[C@@H](c3ccccc3)[C@@H](c3ccccc3)N2)cc1 [2-[2-(4-Fluorophenyl)ethyl]-cis-4,5-diphenyl-4,5-dihydro-1H-imidazole trifluoroacetate]
269 nM and 270 nM | Clc1ccc(CC2=N[C@@H](c3ccccc3)[C@@H](c3ccccc3)N2)cc1 [cis-4,5-diphenyl-2-(4-chlorobenzyl)-4,5-dihydro-1H-imidazole]
289 nM | Fc1ccc(CNC2=N[C@@H](c3ccccc3)[C@@H](c3ccccc3)N2)c(F)c1 [cis-4,5-diphenyl-2-(2,4-difluorobenzyl)amino-4,5-dihydro-1H-imidazole]
229 nM | Cc1cccc(CCC2=N[C@@H](c3ccccc3)[C@@H](c3ccccc3)N2)c1 [2-[2-(3-Methylphenyl)ethyl]-cis-4,5-diphenyl-4,5-dihydro-1H-imidazole trifluoroacetate]
214 nM | c1ccc(CSC2=N[C@@H](c3ccccc3)[C@@H](c3ccccc3)N2)cc1 [cis-4,5-diphenyl-2-benzylthio-4,5-dihydro-1H-imidazole]
